From patent US9193681B1, “Propionic acids, propionic acid esters, and related compounds” (Promentis Pharmaceuticals, Inc., priority 2014, dated 2015)

Experiments:
[1] = system: mixed cortical cell cultures containing glial and neuronal cells; assay: In vitro thiol experiment: intracellular cysteine levels; format: cell-based, mice; conditions: 100 μM
Method: Mixed cortical cell cultures containing glial and neuronal cells were prepared from fetal (15-16 day gestation) mice as previously described. Lobner D, Comparison of the LDH and MTT assays for quantifying cell death: validity for neuronal apoptosis?, J Neurosci Methods, 2000, Mar. 15, 96(2), 147-152). Dissociated cortical cells were plated on 24-well plates coated with poly-D-lysine and laminin in Eagles' Minimal Essential Medium (MEM, Earle's salts, supplied glutamine-free) supplemented with 5% heat-inactivated horse serum, 5% fetal bovine serum, 2 mM glutamine and glucose (total 21 mM). Cultures were maintained in humidified 5% CO2 incubators at 37° C. […]
Samples were then sonicated with a Fisher Scientific 60 Sonic Dismembrator. One fraction of this homogenate was analyzed with the Pierce BCA (bicinchoninic acid) method to determine protein concentration. The other fraction was filtered using 3 K molecular weight cutoff, polyethersulfone centrifugal protein filters, and analyzed for thiol content using high-performance liquid chromatography (ALF-115 column, 150×1.0 mm, 3 μm C18; mobile phase: 50 mM citric acid, 10 mM octanesulfonic acid, 2% acetonitrile, pH 2.8, 50 uL/min flow rate) with electrochemical detection (Decade II, Au working electrode, Flex Cell HyREF, 0.55V, Antec Leyden, Netherlands).

[2] = system: human glial cells from brain astrocytoma (1321N1); assay: 3H-glutamate release from human glial cell culture; format: cell-based; conditions: at 3 hours; 100 μM; relative to untreated control; 1321N1 cells
Method: This assay also uses the cell culture system of human glial cells from brain astrocytoma (1321N1) described above. Initially, cells are washed, and ^3H-glutamate is added (PerkinElmer: 1 mCi/mL stock solution is diluted (30 μL+500 μL HBBSS) and 10 μL of diluted radiolabel is added to each well). Following a 1 hour incubation to load the cells with the labeled glutamate, the cells are washed again with HBBSS, and the drug is added. At 30, 90, and 180 minutes, 50 μL of extracellular media is sampled from each well and is measured using a Beckman LS 6500 scintillation counter.

rats [3] = assay: Elevated-plus maze; format: in vivo, rat
Method: Rats were tested in a standard elevated plus maze; testing occurred in a dimly illuminated room using only two lights mounted over the maze. Animals were allowed to habituate to the room for at least one hour prior to treatment. One hour prior to testing, rats received a Pro-4001 (0-30 mg/kg, P.O.). For testing, the rat was placed in the elevated plus maze for five minutes, alternating the starting position between facing an open arm and facing a closed arm. The session was recorded and an observer blind to treatment recorded the number of explorations, entries and time spent in the open arm. Explorations were defined as the rat placing two feet into an open arm without fully entering said arm. Entries were defined as the rat placing all four feet in an open arm. Time of entry in the open arm was recorded from the time the rat placed four feet in the open arm until two of the rats' feet entered the open square.

rats [4] = assay: Prepulse inhibition experiment (MK-801-induced deficit); format: in vivo, rat; conditions: 3 mg/kg P.O., MK-801 0.1 mg/kg SC, MK-801 plus vehicle control about 18%
Method: Rats were placed on a platform in a sound attenuating chamber (10.875″×14″×19.5″; Hamilton Kinder, Calif.) that rested on a motion sensing plate. During all sessions, the background noise was held constant at 60 dB. A matching session was conducted to determine the magnitude of the average startle response for each rat. This session consisted of a five minute habituation period followed by 20 trials; 17 trials involved the presentation of a single auditory stimulus (pulse stimulus; 50 dB above the background noise) and three trials in which a pre-pulse stimulus (12 db above background) was presented 100 ms before the pulse auditory stimulus. Rats were then assigned into the various treatment groups so that the magnitude of the startle response was equivalent across all groups. Two days later, a testing session was conducted to assess sensorimotor gating. One hour prior to testing, rats received a prodrug (0-100 mg/kg, P.O.) and 55 minutes later acute MK-801 maleate (0.1 mg/kg, SC). […] All startle responses were normalized to vehicle control, and the percent of prepulse inhibition was determined as 100−(average prepulse startle response/average startle stimulus alone)*100.

[5] = system: human glial cells from brain astrocytoma (1321N1); assay: 14C-cystine uptake in human glial cell culture; format: cell-based; conditions: 100 μM (most effective concentration); relative to untreated control; 1321N1 cells; three hour incubation
Method: The screening of the compound was performed using an in vitro culture system of human glial cells from brain astrocytoma (1321N1). Cells were plated on 24 well plates coated with poly-D-lysine and laminin and grown in a balanced salt solution supplemented with 5% heat inactivated horse serum, 5% fetal bovine serum, 2 mM glutamine and glucose (total 21 mM). Cultures were maintained in humidified 5% CO2 incubators at 37° C. for 3-4 days before experiments were performed, at this time the cultures has formed a single confluent layer. For experiments, cultures are washed 3 times into a Na-free HEPES and HCO3^− buffered balanced salt solution. After 1 hour, the test compounds are added. Following a three hour incubation, ^14C-cystine (0.025 mCi/mL) was then added for 20 minutes. Following the ^14C-cystine exposure, cultures were washed 3 times with ice cold HEPES buffered saline solution and dissolved in 250 μl sodium dodecyl sulfate (0.1%). An aliquot (200 μl) was removed and added to scintillation fluid for counting. Values were normalized to ^14C-cystine uptake in untreated controls on the same experimental plate.

SMILES: CCOC(=O)[C@H](CSC(=O)[C@@H](N)C(C)C)NC(C)=O.Cl [Pro-4001, ethyl (2R)-3-{[(2S)-2-amino-3-methylbutanoyl]sulfanyl}-2-acetamido-propanoate hydrochloride]
- intracellular cysteine concentration [1]: 0.78 µM
- intracellular cysteine concentration, times the control value [1]: approximately 5 times
- increase in 3H-glutamate release [2]: 175%
- increase of time spent on the open arm (rats [3]; 10 mg/kg PO): 50%
- time spent on the open arms (rats [3]; 10 mg/kg PO): around 21 seconds
- increase of time spent on the open arm (rats [3]; 30 mg/kg PO): 64%
- time spent on the open arms (rats [3]; 30 mg/kg PO): around 25 seconds
- % prepulse inhibition (rats [4]): about 27%
- decrease in 14C-cystine uptake [5]: 50%
